Key:
Genome polyprotein [1] = target: T1, Genome polyprotein (dengue virus type 2, UniProt P29990); format: functional, Thailand/16681/1984
Genome polyprotein [2] = target: T1, Genome polyprotein; format: functional, Thailand/16681/1984; remark: listed apart in the source

T1 sequence (P29990 1346-1475 limits assumed): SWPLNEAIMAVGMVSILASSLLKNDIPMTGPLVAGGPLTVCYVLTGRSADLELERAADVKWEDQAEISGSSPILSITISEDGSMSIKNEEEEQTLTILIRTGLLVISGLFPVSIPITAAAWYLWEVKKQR
T1 sequence (P29990 1476-2093 limits assumed): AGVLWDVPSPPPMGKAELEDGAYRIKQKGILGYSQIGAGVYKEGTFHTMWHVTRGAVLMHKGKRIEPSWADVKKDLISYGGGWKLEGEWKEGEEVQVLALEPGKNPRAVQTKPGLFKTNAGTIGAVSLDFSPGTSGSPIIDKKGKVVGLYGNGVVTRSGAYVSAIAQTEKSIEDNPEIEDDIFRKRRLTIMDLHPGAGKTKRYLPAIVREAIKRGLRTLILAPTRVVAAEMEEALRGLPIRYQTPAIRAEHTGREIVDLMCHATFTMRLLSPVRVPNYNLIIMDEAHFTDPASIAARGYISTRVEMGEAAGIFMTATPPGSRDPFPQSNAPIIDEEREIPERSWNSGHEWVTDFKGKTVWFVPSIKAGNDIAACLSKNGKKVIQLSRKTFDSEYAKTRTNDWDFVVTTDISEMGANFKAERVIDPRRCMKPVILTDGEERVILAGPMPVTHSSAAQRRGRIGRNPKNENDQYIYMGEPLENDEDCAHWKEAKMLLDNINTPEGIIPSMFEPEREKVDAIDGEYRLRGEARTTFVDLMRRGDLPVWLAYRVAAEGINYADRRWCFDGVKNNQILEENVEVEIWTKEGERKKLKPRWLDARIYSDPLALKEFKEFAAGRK

## CC(C)c1noc2nc(C3CC3)cc(C(=O)Nc3cccc(CN)c3)c12
Genome polyprotein [1]
  IC50: > 100 µM
Genome polyprotein [2]
  IC50: > 99.5 µM

## NCc1ccc(NS(=O)(=O)c2ccc(Oc3ccccc3Cl)cc2)cc1
Genome polyprotein [1]
  IC50: > 100 µM
Genome polyprotein [2]
  IC50: > 99.5 µM

## CC(C)c1ncc(OC2CCC2)c(C(=O)Nc2cccc(CN)c2)n1
Genome polyprotein [1]
  IC50: > 100 µM
Genome polyprotein [2]
  IC50: > 99.5 µM

## NCc1cccc(NC(=O)c2ccc(F)c(NC(=O)OCc3ccccc3)c2F)c1
Genome polyprotein [1]
  IC50: > 100 µM
Genome polyprotein [2]
  IC50: > 99.5 µM

## Cc1c(CN)cccc1NS(=O)(=O)c1ccc(Oc2ccccc2Cl)cc1
Genome polyprotein [1]
  IC50: > 100 µM
Genome polyprotein [2]
  IC50: > 99.5 µM

## N[C@H]1CCc2ncc(NS(=O)(=O)c3ccc(Oc4ccccc4Cl)cc3)cc2C1
Genome polyprotein [1]
  IC50: > 100 µM
Genome polyprotein [2]
  IC50: > 99.5 µM

## O=C(Nc1cc(Cl)cc(C(=O)Nc2cccc([C@H]3CCCCN3)c2)c1)OCc1ccccc1
Genome polyprotein [1]
  IC50: > 100 µM
Genome polyprotein [2]
  IC50: > 99.5 µM

## Cc1cc(=O)c(C(=O)Nc2cccc(CN)c2)nn1-c1ccccc1C(F)(F)F
Genome polyprotein [1]
  IC50: > 100 µM
Genome polyprotein [2]
  IC50: > 99.5 µM

## C[C@H]1CCN1C(=O)Cn1ccnc(N2CC[C@H](CO)C2)c1=O
Genome polyprotein [1]
  IC50: > 100 µM
Genome polyprotein [2]
  IC50: > 99.5 µM

## NCc1ccncc1NS(=O)(=O)c1ccc(Oc2ccccc2Cl)cc1
Genome polyprotein [1]
  IC50: > 100 µM
Genome polyprotein [2]
  IC50: 37.1 µM

## NCc1cccc(NC(=O)c2cc(C3CCCCC3)nc3ccc(F)cc23)c1
Genome polyprotein [1]
  IC50: > 100 µM
Genome polyprotein [2]
  IC50: > 99.5 µM

## NCc1cccc(NC(=O)c2cccc(Oc3ccc(Cl)c(Cl)c3)n2)c1
Genome polyprotein [1]
  IC50: > 100 µM
Genome polyprotein [2]
  IC50: 95.6 µM

## NCC12CC(NC(=O)c3cc(Cl)cc(NC(=O)OCc4ccccc4)c3)(CCO1)C2
Genome polyprotein [1]
  IC50: > 100 µM
Genome polyprotein [2]
  IC50: > 99.5 µM

## COc1c(Cl)cc(Cl)cc1C(=O)Nc1cccc(CN)c1
Genome polyprotein [1]
  IC50: > 100 µM
Genome polyprotein [2]
  IC50: > 99.5 µM

## NCc1cccc(NC(=O)c2cc(C3CC3)nc3c(Cl)cnn23)c1
Genome polyprotein [1]
  IC50: > 100 µM
Genome polyprotein [2]
  IC50: > 99.5 µM

## O=C(Cn1ccnc(N2CC[C@H](CO)C2)c1=O)N[C@H]1CCOC1
Genome polyprotein [1]
  IC50: > 100 µM
Genome polyprotein [2]
  IC50: > 99.5 µM

## CCCOc1ccc2[nH]cc(CN3CCC(c4cscn4)CC3)c2c1
Genome polyprotein [1]
  IC50: > 100 µM
Genome polyprotein [2]
  IC50: > 99.5 µM

## NCc1cccc(NC(=O)c2cccn3cc(CN4CCCC4)nc23)c1
Genome polyprotein [1]
  IC50: > 100 µM
Genome polyprotein [2]
  IC50: > 99.5 µM

## CC(C)Oc1cc(CN)ccc1NS(=O)(=O)c1ccc(Oc2ccccc2Cl)cc1
Genome polyprotein [1]
  IC50: > 100 µM
Genome polyprotein [2]
  IC50: > 99.5 µM

## NCc1cccc(NC(=O)Cc2cccc(Oc3ccncc3Br)c2)c1
Genome polyprotein [1]
  IC50: > 100 µM
Genome polyprotein [2]
  IC50: > 99.5 µM

## O=C(Nc1cc(Cl)cc(C(=O)Nc2ccnc(OC3CNC3)c2)c1)OCc1ccccc1
Genome polyprotein [1]
  IC50: > 100 µM
Genome polyprotein [2]
  IC50: > 99.5 µM

## NCc1cccc(/C=C/c2cc(Cl)cc(NC(=O)OCc3ccccc3)c2)c1
Genome polyprotein [1]
  IC50: > 100 µM
Genome polyprotein [2]
  IC50: > 99.5 µM

## CN1CCC[C@H]1COc1ccc([C@@H](NC(=O)OCc2ccccc2)C(=O)Nc2cccc(CN)c2)cc1
Genome polyprotein [1]
  IC50: > 100 µM
Genome polyprotein [2]
  IC50: > 99.5 µM

## NCc1cccc(NC(=O)c2cccc3c2O[C@H](c2ccccc2)C(=O)N3)c1
Genome polyprotein [1]
  IC50: > 100 µM
Genome polyprotein [2]
  IC50: > 99.5 µM

## NCc1cccc(NC(=O)c2cc(C(F)(F)F)ccc2SC2CCCC2)c1
Genome polyprotein [1]
  IC50: > 100 µM
Genome polyprotein [2]
  IC50: > 99.5 µM

## Cc1ccc(NS(=O)(=O)c2ccc(Oc3ccccc3Cl)cc2)cc1CN
Genome polyprotein [1]
  IC50: > 100 µM
Genome polyprotein [2]
  IC50: > 99.5 µM

## CCOc1cccc(-c2ccc(S(=O)(=O)Nc3cc4c(cc3C(=O)O)CCC4)cc2)c1
Genome polyprotein [1]
  IC50: 11.5 µM
Genome polyprotein [2]
  IC50: 8.67 µM

## Cc1ccc(Sc2ncccc2C(=O)Nc2cccc(CN)c2)cc1C
Genome polyprotein [1]
  IC50: > 100 µM
Genome polyprotein [2]
  IC50: > 99.5 µM

## C=CC[C@]1(NC(=O)c2cc(Cl)cc(NC(=O)OCc3ccccc3)c2)CCNC1
Genome polyprotein [1]
  IC50: > 100 µM
Genome polyprotein [2]
  IC50: > 99.5 µM

## O=C(Nc1cc(Cl)cc(C(=O)NC[C@@]23CN[C@H](CCO2)C3)c1)OCc1ccccc1
Genome polyprotein [1]
  IC50: > 100 µM
Genome polyprotein [2]
  IC50: > 99.5 µM

## COCCN(C)C(=O)Cn1ccnc(N2CC[C@@H](CO)C2)c1=O
Genome polyprotein [1]
  IC50: > 100 µM
Genome polyprotein [2]
  IC50: > 99.5 µM

## NCc1ccc(F)c(NC(=O)c2cc(Cl)cc(NC(=O)OCc3ccccc3)c2)c1
Genome polyprotein [1]
  IC50: > 100 µM
Genome polyprotein [2]
  IC50: > 99.5 µM

## NCc1cccc(NC(=O)[C@H](NC(=O)OCc2ccccc2)C2CCN(C(=O)Cn3ccnc3)CC2)c1
Genome polyprotein [1]
  IC50: > 100 µM
Genome polyprotein [2]
  IC50: > 99.5 µM

## CC(C)c1nn(-c2ccccc2)cc1C(=O)Nc1cccc(CN)c1
Genome polyprotein [1]
  IC50: > 100 µM
Genome polyprotein [2]
  IC50: > 99.5 µM

## NCc1cccc(NC(=O)c2cc(C3CC3)n3nccc3n2)c1
Genome polyprotein [1]
  IC50: > 100 µM
Genome polyprotein [2]
  IC50: > 99.5 µM

## O=C(Nc1cc(Cl)cc(C(=O)NC[C@@H]2CNCCC2(F)F)c1)OCc1ccccc1
Genome polyprotein [1]
  IC50: > 100 µM
Genome polyprotein [2]
  IC50: > 99.5 µM

## CC[C@H](C(=O)Nc1cccc(CN)c1)n1cc(Br)c(C(F)(F)F)n1
Genome polyprotein [1]
  IC50: > 100 µM
Genome polyprotein [2]
  IC50: > 99.5 µM

## CC(C)(C)OC(=O)NCc1cc(Cl)cc(C(=O)O)c1
Genome polyprotein [1]
  IC50: > 100 µM
Genome polyprotein [2]
  IC50: > 99.5 µM

## O=C1Nc2ccccc2[C@H]1N1CCC(c2nc3ccccc3s2)CC1
Genome polyprotein [1]
  IC50: > 100 µM
Genome polyprotein [2]
  IC50: > 99.5 µM

## CCc1onc(-c2ccc(Br)cc2)c1C(=O)Nc1cccc(CN)c1
Genome polyprotein [1]
  IC50: > 100 µM
Genome polyprotein [2]
  IC50: > 99.5 µM

## O=C(Nc1cc(Cl)cc(C(=O)NCC[C@H]2COCCN2)c1)OCc1ccccc1
Genome polyprotein [1]
  IC50: > 100 µM
Genome polyprotein [2]
  IC50: > 99.5 µM

## CC(C)(C)Cn1c(=O)[nH]c2cccc(C(=O)Nc3cccc(CN)c3)c21
Genome polyprotein [1]
  IC50: > 100 µM
Genome polyprotein [2]
  IC50: > 99.5 µM

From ChEMBL document CHEMBL5604063, “ASAP - DENV-2 NS2B-NS3 protease fluorescence dose response” (2024)
